Laboratory results taken from patent publication US20260272936A1, “TREATMENT OF CANCER WITH A PARG INHIBITOR” (858 Therapeutics, Inc., priority 2023, published 2026).

Experiments:
HCC1954 cells = test: 6-day growth assay, Compound 1 in combination with exatecan; assay type: cell-based; settings: Homo sapiens
Procedure: (§1) The activity of Compound 1 in combination with exatecan was evaluated in the HCC1954, HCC1806, and GP2D cancer cell lines in a 6-day growth assay. HCC1954 (Cat #CRL-2338) and HCC1806 (Cat #CRL-2335) cells were obtained from American Type Culture Collection (ATCC) and maintained in ATCC modified RPMI (Cat #30-2001)+10% FBS (Cat #A3160502)+1% penicillin/streptomycin (Cat #15140-122) in a humidified incubator at 37° C., 5% CO2. GP2D cells were obtained from ECACC (Cat #95090714-1VL) and maintained in DMEM+GlutaMAX (Cat #10566-016)+10% FBS (Cat #A3160502)+1% penicillin/streptomycin (Cat #15140-122). Cells were seeded at 2,500 cells/well (HCC1954 and GP2D) or 2,000 cells/well (HCC1806) in 100 μL of growth medium in a 96-well plate (Corning costar Cat #3603) and allowed to adhere overnight at 37° C. with 5% CO2. The next day, serial dilutions of Compound 1 and exatecan were prepared and added to the corresponding wells of a 96-well plate. A solution of 0.1% DMSO in medium was used as the negative control. Cells were incubated with compound for 6 days at 37° C. with 5% CO2, then fixed, stained, and counted as described in Example 3. Concentration response-curves and IC50 values were generated by non-linear regression analysis using a 4-parameter variable slope fit in GraphPad Prism 10 software. Potential synergy between Compound 1 and exatecan was assessed using Zero interaction potency (ZIP), Highest Single Agent (HSA), Bliss, and Loewe synergy models to find the most synergistic area score, where scores >10 indicate that the interaction between the two drugs is likely to be synergistic (Ianevski et al. 2020).

HCC1806 cells = test: as above; assay type: cell-based; settings: Homo sapiens
Procedure: as §1

human recombinant PARG = target: T1, human recombinant PARG (Homo sapiens, UniProt Q86W56); test: HTRF assay of PARG enzymatic activity with PARylated-PARP1 substrate; assay type: biochemical; settings: geometric mean, n=14
T1 construct: Human PARG (amino acids 389-976; Uniprot ID Q86W56-1); 6xHis (N, cleaved yes); TEV cleavage site (N, cleaved yes); made in house; host or cells: PARG: E. coli BL21 (DE3); PARP1 substrate: High Five insect cells (baculovirus)

Parental SNU601 cells = test: 6-day proliferation, nuclei count, parental line; assay type: cell-based; settings: Homo sapiens, SNU-601, 144 h, read-out: IC50 inhibition of proliferation
Procedure: The SNU601 gastric carcinoma cell line (Creative Bioarray, Cat #CSC-C9686L) was cultured in RPMI media containing glutamax, 10% fetal bovine serum, and 1% penicillin/streptomycin at 37° C., 5% CO2. To generate a PARP inhibitor resistant cell line, an IC20 concentration of niraparib was added to the culture media.
Compound 1 and the PARP inhibitor niraparib were tested in cellular proliferation assays using the parental SNU601 cell line and the SNU601 cell line with acquired PARPi resistance. For the proliferation assays, cells were plated in 96-well plates (Corning costar 3603) at 2500-5000 cells/well in normal growth media. The next day, compound dissolved in vehicle (0.5% DMSO in media) was added to generate a 7- to 10-point concentration curve with half-log dilutions and starting concentrations of 10 or 31.6 μM. After 6 days of compound or vehicle treatment, the cells were fixed with a solution of 8% paraformaldehyde, 0.2% Triton X-100 for 20 minutes. After washing the cells with PBS, the nuclei were stained by the addition of DAPI (4′,6-diamidino-2-phenylindole) and incubation for 20 minutes. The number of nuclei in each well were counted by imaging the plates on an Image Xpress Pico automated cell imaging system (Molecular Devices). The percent proliferation after treatment was determined by normalizing the number of nuclei in treated wells to the vehicle-treated wells. […]

T1 sequence (Q86W56 389-976): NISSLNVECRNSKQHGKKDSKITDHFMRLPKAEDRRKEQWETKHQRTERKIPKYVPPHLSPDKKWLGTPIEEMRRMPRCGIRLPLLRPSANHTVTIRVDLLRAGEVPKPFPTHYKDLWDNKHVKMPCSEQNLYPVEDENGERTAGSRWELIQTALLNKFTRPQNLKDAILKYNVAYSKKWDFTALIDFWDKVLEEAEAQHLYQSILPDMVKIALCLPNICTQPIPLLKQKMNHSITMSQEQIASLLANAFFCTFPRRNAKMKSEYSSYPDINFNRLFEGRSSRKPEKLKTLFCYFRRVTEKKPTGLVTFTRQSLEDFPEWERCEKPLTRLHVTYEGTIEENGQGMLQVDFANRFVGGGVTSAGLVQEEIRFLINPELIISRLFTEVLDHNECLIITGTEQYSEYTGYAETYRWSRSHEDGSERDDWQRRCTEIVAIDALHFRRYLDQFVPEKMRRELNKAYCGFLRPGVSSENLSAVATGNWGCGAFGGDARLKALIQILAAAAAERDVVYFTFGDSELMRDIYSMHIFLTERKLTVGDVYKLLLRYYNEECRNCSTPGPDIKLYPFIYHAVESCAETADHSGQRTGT

SMILES: [2H]C([2H])(c1cnn(C)c1)N1C(=O)c2cc(S(=O)(=O)NC3(C)CC3)ccc2N2C1=NC[C@H]2C [Compound 1, (R)-1-methyl-4-((1-methyl-1H-pyrazol-4-yl)methyl-d2)-N-(1-methylcyclopropyl)-5-oxo-1,2,4,5-tetrahydroimidazo[1,2-a]quinazoline-7-sulfonamide]
- IC50 (HCC1954 cells; exatecan 0.001 nM): 6.9 µM
- IC50 (HCC1954 cells; exatecan 0.01 nM): 7.2 µM
- IC50 (HCC1954 cells; exatecan 0.03 nM): 6.6 µM
- IC50 (HCC1954 cells; exatecan 0.1 nM): 5.2 µM
- IC50 (HCC1954 cells; exatecan 0.3 nM): 0.9 µM
- IC50 (HCC1806 cells; exatecan 0.001 nM): 1.9 µM
- IC50 (HCC1806 cells; exatecan 0.01 nM): 1.5 µM
- IC50 (HCC1806 cells; exatecan 0.03 nM): 1.2 µM
- IC50 (HCC1806 cells; exatecan 0.1 nM): 0.3 µM
- IC50 (human recombinant PARG): 0.085 µM
- IC50 (Parental SNU601 cells): 0.21 µM
